Data as given in US8802700B2 (Vertex Pharmaceuticals Incorporated, priority 2010, dated 2014).

biological target: T1, ΔF508-CFTR (Homo sapiens, UniProt P13569, DEL508-508); test: Membrane potential optical assay (FRET voltage-sensor dyes, VIPR), identification of potentiator compounds; type: cell-based; details: Table 3; assay not given; read-out: % Activity (% Efficacy, relative efficacy)
T1 construct: expressed in transfected cells
How it was run: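 NIH3T3 mouse fibroblasts stably expressing ΔF508-CFTR, cultured 24 h at 27 °C, were loaded with FRET voltage dyes CC2-DMPE and DiSBAC2(3). Double-addition format: first addition of Cl⁻-free (gluconate) medium with or without compound; membrane-potential change read as fluorescence on VIPR II.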

T1 sequence (P13569 with tags, fused parts or gaps DEL508-508): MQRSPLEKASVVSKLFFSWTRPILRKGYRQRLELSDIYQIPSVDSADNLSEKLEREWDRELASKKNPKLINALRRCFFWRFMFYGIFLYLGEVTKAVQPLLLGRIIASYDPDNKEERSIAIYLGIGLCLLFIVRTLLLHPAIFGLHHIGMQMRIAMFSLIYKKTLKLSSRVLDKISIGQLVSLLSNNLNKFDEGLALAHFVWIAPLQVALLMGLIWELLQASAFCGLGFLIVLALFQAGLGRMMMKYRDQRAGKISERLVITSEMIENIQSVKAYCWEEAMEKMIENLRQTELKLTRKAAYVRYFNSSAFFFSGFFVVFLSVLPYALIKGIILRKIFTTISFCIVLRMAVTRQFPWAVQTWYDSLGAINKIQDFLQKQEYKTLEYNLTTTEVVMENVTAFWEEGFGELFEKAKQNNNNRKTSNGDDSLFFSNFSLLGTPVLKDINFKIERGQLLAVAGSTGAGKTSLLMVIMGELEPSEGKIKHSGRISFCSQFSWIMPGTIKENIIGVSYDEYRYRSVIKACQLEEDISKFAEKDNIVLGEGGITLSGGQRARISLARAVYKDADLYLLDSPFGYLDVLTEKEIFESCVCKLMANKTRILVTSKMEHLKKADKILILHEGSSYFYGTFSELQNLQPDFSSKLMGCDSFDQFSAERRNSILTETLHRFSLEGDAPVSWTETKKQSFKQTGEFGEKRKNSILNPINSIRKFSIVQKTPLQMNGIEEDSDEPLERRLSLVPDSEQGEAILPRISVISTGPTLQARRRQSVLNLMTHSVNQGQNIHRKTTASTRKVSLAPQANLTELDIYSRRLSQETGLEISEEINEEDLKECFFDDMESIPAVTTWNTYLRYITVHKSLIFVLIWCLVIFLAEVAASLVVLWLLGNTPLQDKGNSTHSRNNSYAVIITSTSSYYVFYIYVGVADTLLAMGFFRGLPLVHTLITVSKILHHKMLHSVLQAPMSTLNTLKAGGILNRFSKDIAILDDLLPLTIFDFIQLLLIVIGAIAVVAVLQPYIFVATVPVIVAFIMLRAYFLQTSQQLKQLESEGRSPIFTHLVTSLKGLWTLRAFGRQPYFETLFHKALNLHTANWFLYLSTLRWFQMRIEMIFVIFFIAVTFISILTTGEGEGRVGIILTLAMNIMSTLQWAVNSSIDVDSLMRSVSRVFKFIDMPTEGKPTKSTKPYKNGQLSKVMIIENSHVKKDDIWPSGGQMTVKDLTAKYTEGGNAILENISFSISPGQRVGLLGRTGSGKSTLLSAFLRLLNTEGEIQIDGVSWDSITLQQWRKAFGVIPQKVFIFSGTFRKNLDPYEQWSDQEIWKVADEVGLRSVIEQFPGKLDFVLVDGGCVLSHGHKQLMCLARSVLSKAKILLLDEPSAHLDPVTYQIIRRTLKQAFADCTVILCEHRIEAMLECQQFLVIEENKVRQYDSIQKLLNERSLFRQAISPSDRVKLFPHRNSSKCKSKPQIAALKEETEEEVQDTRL

CCCc1ccc(NC(=O)OC)cc1NC(=O)c1c[nH]c2ccccc2c1=O [Compound 471, [3-[(4-oxo-1H-quinolin-3-yl)carbonylamino]-4-propyl-phenyl]aminoformic acid methyl ester] and CCOC(=O)Nc1cc(NC(=O)c2c[nH]c3ccccc3c2=O)ccc1C(C)(C)C [Compound 127, [5-[(4-oxo-1H-quinolin-3-yl)carbonylamino]-2-tert-butyl-phenyl]aminoformic acid ethyl ester] fall in the same range of Emax: 25 to 100% for the first, 25 to 100% for the second.

CC(C)(C)OC(=O)N1CCC(C)(C)c2ccc(NC(=O)c3c[nH]c4ccccc4c3=O)cc21 [Compound 108, 4,4-dimethyl-7-[(4-oxo-1H-quinolin-3-yl)carbonylamino]-1,2,3,4-tetrahydroquinoline-1-carboxylic acid tert-butyl ester] and CC(C)(C)OC(=O)N1CCc2c(cccc2NC(=O)c2c[nH]c3ccccc3c2=O)C1 [Compound 427, 5-[(4-oxo-1H-quinolin-3-yl)carbonylamino]-1,2,3,4-tetrahydroisoquinoline-2-carboxylic acid tert-butyl ester] fall in the same range of Emax: 25 to 100% for the first, 25 to 100% for the second.

O=C(Nc1cc(O)c(Cl)cc1F)c1c[nH]c2ccccc2c1=O [Compound 695, N-(4-chloro-2-fluoro-5-hydroxy-phenyl)-4-oxo-1H-quinoline-3-carboxamide] and CC(C)(C)c1cc(Cl)c(O)cc1NC(=O)c1c[nH]c2ccccc2c1=O [Compound 426, N-(4-chloro-5-hydroxy-2-tert-butyl-phenyl)-4-oxo-1H-quinoline-3-carboxamide] fall in the same range of Emax: 25 to 100% for the first, 25 to 100% for the second.

O=C(Nc1cc2[nH]ccc2cc1Cl)c1c[nH]c2ccccc2c1=O [Compound 32, N-(5-chloro-1H-indol-6-yl)-4-oxo-1H-quinoline-3-carboxamide] and N#Cc1c(Cl)cccc1NC(=O)c1c[nH]c2ccccc2c1=O [Compound 222, N-(3-chloro-2-cyano-phenyl)-4-oxo-1H-quinoline-3-carboxamide] fall in the same range of Emax: 25 to 100% for the first, 25 to 100% for the second.

CC(C)(C)c1ccc(NC(=O)c2c[nH]c3ccccc3c2=O)cc1N [Compound 271, N-(3-amino-4-tert-butyl-phenyl)-4-oxo-1H-quinoline-3-carboxamide] and Cc1ccc(NC(=O)c2c[nH]c3ccccc3c2=O)cc1N [Compound 167, N-(3-amino-4-methyl-phenyl)-4-oxo-1H-quinoline-3-carboxamide] fall in the same range of Emax: 25 to 100% for the first, 25 to 100% for the second.

CC(C)(C)c1cc(F)c(NC(=O)c2c[nH]c3cc(F)c(F)cc3c2=O)cc1O [Compound 486, 6,7-difluoro-N-(2-fluoro-5-hydroxy-4-tert-butyl-phenyl)-4-oxo-1H-quinoline-3-carboxamide] and CC(C)(C)c1cc(C(C)(C)C)c(NC(=O)c2c[nH]c3c(F)cccc3c2=O)cc1O [Compound 687, 8-fluoro-N-(5-hydroxy-2,4-ditert-butyl-phenyl)-4-oxo-1H-quinoline-3-carboxamide] fall in the same range of Emax: 25 to 100% for the first, 25 to 100% for the second.

First: CC(C)c1ccc(NC(=O)c2c[nH]c3c(F)cccc3c2=O)c(C(F)(F)F)c1 [Compound 573, 8-fluoro-N-[4-isopropyl-2-(trifluoromethyl)phenyl]-4-oxo-1H-quinoline-3-carboxamide]
Second: O=C(Nc1ccc(N2CCOCC2)cc1C(F)(F)F)c1c[nH]c2ccccc2c1=O [Compound 598, N-[4-morpholino-2-(trifluoromethyl)phenyl]-4-oxo-1H-quinoline-3-carboxamide]
The Emax of the first is lower: 25 to 100% for the first, greater than 100% for the second.

CC1(c2ccc(NC(=O)c3c[nH]c4cccc(O)c4c3=O)cc2)COC1 [Compound 529, 5-hydroxy-N-[4-(3-methyloxetan-3-yl)phenyl]-4-oxo-1H-quinoline-3-carboxamide] and CC(O)c1ccc(NC(=O)c2c[nH]c3ccccc3c2=O)cc1 (centres unmarked) [Compound 450, N-[4-(1-hydroxyethyl)phenyl]-4-oxo-1H-quinoline-3-carboxamide] fall in the same range of Emax: 25 to 100% for the first, 25 to 100% for the second.

Compared with Cc1ccc2[nH]cc(C(=O)Nc3ccc(N4CCC(C)(C)C4)cc3C(F)(F)F)c(=O)c2c1 [Compound 489, N-[4-(3,3-dimethylpyrrolidin-1-yl)-2-(trifluoromethyl)phenyl]-6-methyl-4-oxo-1H-quinoline-3-carboxamide], COC(=O)[C@]1(C)CCCN1c1ccc(NC(=O)c2c[nH]c3ccccc3c2=O)c(C(F)(F)F)c1 [Compound 631, (S)-methyl 2-methyl-1-(4-(4-oxo-1,4-dihydroquinoline-3-carboxamido)-3-(trifluoromethyl)phenyl)pyrrolidine-2-carboxylate] is higher in Emax: 25 to 100% for the first, greater than 100% for the second.

First: O=C(Nc1ccc(OCc2ccccc2)cc1)c1c[nH]c2ccccc2c1=O [Compound 189, N-(4-benzyloxyphenyl)-4-oxo-1H-quinoline-3-carboxamide]
Second: O=C(Nc1ccc2nc(-c3ccccc3)[nH]c2c1)c1c[nH]c2ccccc2c1=O [Compound 73, 4-oxo-N-(2-phenyl-3H-benzoimidazol-5-yl)-1H-quinoline-3-carboxamide]
The Emax of the first is higher: 25 to 100% for the first, less than 25% for the second.

First: O=C(Nc1nc2ccccc2[nH]1)c1c[nH]c2ccccc2c1=O [Compound 216, N-(3H-benzoimidazol-2-yl)-4-oxo-1H-quinoline-3-carboxamide]
Second: Cc1ccccc1NC(=O)c1c[nH]c2ccccc2c1=O [Compound 459, N-(o-tolyl)-4-oxo-1H-quinoline-3-carboxamide]
The Emax of the first is lower: less than 25% for the first, 25 to 100% for the second.

CC(C)(C)c1cc2cc[nH]c2cc1NC(=O)c1c[nH]c2cccc(F)c2c1=O [Compound 656, 5-fluoro-4-oxo-N-(5-tert-butyl-1H-indol-6-yl)-1H-quinoline-3-carboxamide] and CC(C)(C)c1cc(C(F)(F)F)c(NC(=O)c2c[nH]c3cccc(O)c3c2=O)cc1O [Compound 487, 5-hydroxy-N-[5-hydroxy-4-tert-butyl-2-(trifluoromethyl)phenyl]-4-oxo-1H-quinoline-3-carboxamide] fall in the same range of Emax: 25 to 100% for the first, 25 to 100% for the second.

COC(=O)Oc1c(NC(=O)c2c[nH]c3ccccc3c2=O)cc(F)cc1C(C)(C)C [Compound 288, N-(5-fluoro-2-methoxycarbonyloxy-3-tert-butyl-phenyl)-4-oxo-1H-quinoline-3-carboxamide] and CC(C)(C)c1ccccc1NC(=O)c1c[nH]c2ccccc2c1=O [Compound 90, 4-oxo-N-(2-tert-butylphenyl)-1H-quinoline-3-carboxamide] fall in the same range of Emax: 25 to 100% for the first, 25 to 100% for the second.

CCCOc1ccc(N)cc1NC(=O)c1c[nH]c2ccccc2c1=O [Compound 17, N-(5-Amino-2-propoxy-phenyl)-4-oxo-1H-quinoline-3-carboxamide] and CC(C)c1ccc(N)cc1NC(=O)c1c[nH]c2ccccc2c1=O [Compound 101, N-(5-amino-2-isopropyl-phenyl)-4-oxo-1H-quinoline-3-carboxamide] fall in the same range of Emax: 25 to 100% for the first, 25 to 100% for the second.

First: CCC1(c2ccc(NC(=O)c3c[nH]c4ccccc4c3=O)cc2)CCC(=O)NC1=O (centres unmarked) [Compound 57, N-[4-(3-ethyl-2,6-dioxo-3-piperidyl)phenyl]-4-oxo-1H-quinoline-3-carboxamide]
Second: CC(=O)N1CCc2ccc(NC(=O)c3c[nH]c4ccccc4c3=O)cc2C1 [Compound 303, N-(2-acetyl-1,2,3,4-tetrahydroisoquinolin-7-yl)-4-oxo-1H-quinoline-3-carboxamide]
The Emax of the first is higher: greater than 100% for the first, 25 to 100% for the second.

COC(=O)[C@@H]1C[C@@H](OC(C)(C)C)CN1c1ccc(NC(=O)c2c[nH]c3ccccc3c2=O)c(C(F)(F)F)c1 [Compound 550, (2S,4R)-methyl 4-tert-butoxy-1-(4-(4-oxo-1,4-dihydroquinoline-3-carboxamido)-3-(trifluoromethyl)phenyl)pyrrolidine-2-carboxylate] and CNc1ccc(C(C)C)c(NC(=O)c2c[nH]c3ccccc3c2=O)c1 [Compound 399, N-(2-isopropyl-5-methylamino-phenyl)-4-oxo-1H-quinoline-3-carboxamide] fall in the same range of Emax: 25 to 100% for the first, 25 to 100% for the second.

O=C(Nc1cc(O)cc(C(F)(F)F)c1)c1c[nH]c2cccc(O)c2c1=O [Compound 599, 5-hydroxy-N-[3-hydroxy-5-(trifluoromethyl)phenyl]-4-oxo-1H-quinoline-3-carboxamide] and CCc1cc(C(C)(C)C)c(O)cc1NC(=O)c1c[nH]c2cccc(O)c2c1=O [Compound 507, N-(2-ethyl-5-hydroxy-4-tert-butyl-phenyl)-5-hydroxy-4-oxo-1H-quinoline-3-carboxamide] fall in the same range of Emax: 25 to 100% for the first, 25 to 100% for the second.

First: CC(C)c1cccc(C(C)C)c1NC(=O)c1c[nH]c2ccccc2c1=O [Compound 466, N-(2,6-diisopropylphenyl)-4-oxo-1H-quinoline-3-carboxamide]
Second: Cc1cccc(NC(=O)c2c[nH]c3ccccc3c2=O)c1C#N [Compound 201, N-(2-cyano-3-methyl-phenyl)-4-oxo-1H-quinoline-3-carboxamide]
The Emax of the first is higher: 25 to 100% for the first, less than 25% for the second.

First: CN(c1ccc(F)cc1)S(=O)(=O)c1ccc2[nH]cc(C(=O)Nc3cc(O)c(C(C)(C)C)cc3C(C)(C)C)c(=O)c2c1 [Compound 137, 6-[(4-fluorophenyl)-methyl-sulfamoyl]-N-(5-hydroxy-2,4-ditert-butyl-phenyl)-4-oxo-1H-quinoline-3-carboxamide]
Second: CC(CO)(CO)c1ccc(NC(=O)c2c[nH]c3ccc(F)cc3c2=O)cc1 [Compound 627, 6-fluoro-N-[4-[2-hydroxy-1-(hydroxymethyl)-1-methyl-ethyl]phenyl]-4-oxo-1H-quinoline-3-carboxamide]
The Emax of the first is higher: 25 to 100% for the first, less than 25% for the second.

Compared with O=C(Nc1cccc(Cl)c1)c1c[nH]c2ccccc2c1=O [Compound 370, N-(3-chlorophenyl)-4-oxo-1H-quinoline-3-carboxamide], Cc1ccnc(NC(=O)c2c[nH]c3ccccc3c2=O)c1 [Compound 84, N-(4-methyl-2-pyridyl)-4-oxo-1H-quinoline-3-carboxamide] is lower in Emax: 25 to 100% for the first, less than 25% for the second.

For O=C(Nc1cccc2c1CCCC2)c1c[nH]c2ccccc2c1=O [Compound 286, 1,4-dihydro-N-(1,2,3,4-tetrahydronaphthalen-5-yl)-4-oxoquinoline-3-carboxamide], the Emax was greater than 100%.
